One assay deals with Tumor necrosis factor (Homo sapiens, UniProt P01375). The assay can be described thus: analog potency on TNFa NF-kB signaling – cell-based, set 3, SAR follow-up (AID 2801). Type of assay: functional.
Assay [1] relates to HEK293. The assay is described as follows: SAR analysis of compounds that are cytotoxic to HEK293 - Set 2. [Related pubchem assays (depositor defined):AID1575, AID1578, AID1849, AID2001, AID2333, AID2334, AID2335, AID2337, AID2800]. Type of assay: functional, cell-based. The conditions noted are these: Homo sapiens.
Assay [2] concerns the target T1, Interleukin-8 (Homo sapiens, UniProt P10145).
T1 sequence (P10145 whole entry): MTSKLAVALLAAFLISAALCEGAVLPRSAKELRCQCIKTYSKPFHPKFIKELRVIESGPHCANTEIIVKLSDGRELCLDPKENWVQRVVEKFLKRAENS
The assay is described as follows: SAR analysis of Tumor necrosis factor alpha (TNF-alpha) induced IL-8 secretion in MCF-7/NOD1 cells - Set 2. [Related pubchem assays (depositor defined):AID1575, AID2250, AID2260]. Type of assay: functional, cell-based.

In assay [3] the target is T1, Interleukin-8. The assay is described as follows: SAR analysis of GM-Tri-DAP induced IL-8 secretion in MCF-7/NOD1 cells - Set 2. [Related pubchem assays (depositor defined):AID1575, AID1578, AID2333]. Type of assay: functional, cell-based.
The target in assay [4] is T2, Nucleotide-binding oligomerization domain-containing protein 2 (Homo sapiens, UniProt Q9HC29). The assay is described as follows: inhibition of NOD2 signaling – set 2, SAR follow-up (AID 2475). The format is functional.
Assay [5] relates to HEK293. The assay is described as follows: SAR analysis of compounds that are cytotoxic to HEK293 - Set 3. [Related pubchem assays (depositor defined):AID1575, AID1578, AID1848, AID1849, AID2001, AID2333, AID2334, AID2335, AID2337, AID2469]. Type of assay: functional, cell-based. Particulars: Homo sapiens.
In assay [6] the target is T3, Nucleotide-binding oligomerization domain-containing protein 1 (Homo sapiens, UniProt Q9Y239).
T3 sequence (Q9Y239 whole entry): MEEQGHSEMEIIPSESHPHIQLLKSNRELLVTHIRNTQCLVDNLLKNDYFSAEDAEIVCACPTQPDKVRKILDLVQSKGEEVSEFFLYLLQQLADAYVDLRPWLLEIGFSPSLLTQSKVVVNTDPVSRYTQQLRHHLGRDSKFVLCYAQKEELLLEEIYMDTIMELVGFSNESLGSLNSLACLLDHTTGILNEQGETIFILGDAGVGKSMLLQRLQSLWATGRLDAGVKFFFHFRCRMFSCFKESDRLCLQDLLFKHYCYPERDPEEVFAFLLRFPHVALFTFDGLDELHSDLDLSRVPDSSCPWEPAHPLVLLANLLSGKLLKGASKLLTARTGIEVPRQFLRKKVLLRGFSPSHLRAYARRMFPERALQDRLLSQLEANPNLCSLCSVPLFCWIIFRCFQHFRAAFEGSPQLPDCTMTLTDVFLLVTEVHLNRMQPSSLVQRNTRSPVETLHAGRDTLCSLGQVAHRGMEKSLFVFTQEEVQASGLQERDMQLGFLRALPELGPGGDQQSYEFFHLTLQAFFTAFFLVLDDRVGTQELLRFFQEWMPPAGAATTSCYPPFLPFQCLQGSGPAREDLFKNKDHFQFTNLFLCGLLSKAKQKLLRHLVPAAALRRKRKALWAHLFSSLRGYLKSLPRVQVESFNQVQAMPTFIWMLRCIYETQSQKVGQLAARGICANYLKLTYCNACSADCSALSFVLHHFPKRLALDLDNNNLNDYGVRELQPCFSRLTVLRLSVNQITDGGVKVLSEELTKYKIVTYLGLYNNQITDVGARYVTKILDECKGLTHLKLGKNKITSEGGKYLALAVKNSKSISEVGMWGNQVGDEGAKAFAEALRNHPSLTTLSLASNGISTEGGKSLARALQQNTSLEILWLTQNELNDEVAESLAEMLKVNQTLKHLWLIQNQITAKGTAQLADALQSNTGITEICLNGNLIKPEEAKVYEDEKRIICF
The assay can be described thus: SAR analysis of compounds that inhibit NOD1 - Set 2. [Related pubchem assays (depositor defined):AID1566, AID1575, AID1578, AID1849, AID1852, AID2333, AID2335, AID2798]. Type of assay: functional.

Assay [7] addresses T3, Nucleotide-binding oligomerization domain-containing protein 1. The assay is described as follows: SAR analysis of compounds that inhibit NOD1 - Set 3. [Related pubchem assays (depositor defined):AID1566, AID1575, AID1578, AID1849, AID1852, AID2333, AID2335, AID2466]. The format is functional.
The target of assay [8] is T2, Nucleotide-binding oligomerization domain-containing protein 2. The assay can be described thus: inhibition of MDP-driven NOD2 NF-kB reporter – cell-based, set 3, SAR follow-up (AID 2799). The format is functional.
Assay [9] addresses T3, Nucleotide-binding oligomerization domain-containing protein 1. The assay is described as follows: SAR analysis of NF-kappaB dependent luciferase using DAP as an inducer - Set 2. [Related pubchem assays (depositor defined):AID1566, AID1575, AID1578, AID1579, AID1849, AID1852, AID2264]. Type of assay: functional.
The target of another assay is T4, Protein RecA (Mycobacterium tuberculosis, UniProt P9WHJ3).
T4 sequence (P9WHJ3 whole entry): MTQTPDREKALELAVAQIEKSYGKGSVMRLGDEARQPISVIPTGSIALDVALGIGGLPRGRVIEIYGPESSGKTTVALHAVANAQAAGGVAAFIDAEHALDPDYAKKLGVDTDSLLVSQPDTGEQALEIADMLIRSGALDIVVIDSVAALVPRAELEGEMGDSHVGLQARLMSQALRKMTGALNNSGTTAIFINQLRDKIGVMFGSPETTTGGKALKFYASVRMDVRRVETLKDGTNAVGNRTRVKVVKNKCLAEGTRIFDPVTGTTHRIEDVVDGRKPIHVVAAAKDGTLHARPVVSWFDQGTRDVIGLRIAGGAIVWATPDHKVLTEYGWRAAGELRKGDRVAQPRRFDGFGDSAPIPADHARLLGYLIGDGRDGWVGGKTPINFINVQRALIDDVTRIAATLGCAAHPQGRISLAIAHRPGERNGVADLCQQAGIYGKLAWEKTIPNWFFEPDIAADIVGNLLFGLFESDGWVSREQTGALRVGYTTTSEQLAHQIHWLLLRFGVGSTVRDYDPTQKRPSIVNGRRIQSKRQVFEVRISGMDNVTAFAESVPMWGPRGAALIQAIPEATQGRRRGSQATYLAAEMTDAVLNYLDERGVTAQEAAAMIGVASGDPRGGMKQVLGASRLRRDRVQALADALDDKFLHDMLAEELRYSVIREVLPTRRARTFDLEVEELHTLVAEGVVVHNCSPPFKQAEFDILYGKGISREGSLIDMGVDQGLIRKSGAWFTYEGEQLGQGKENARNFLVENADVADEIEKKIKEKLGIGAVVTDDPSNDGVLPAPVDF
The assay can be described thus: Fluorescence Cell-Free Homogeneous Dose Retest to Identify Inhibitors of RecA-Intein Splicing Activity. [Related pubchem assays (depositor defined):AID2097, AID2223, AID489010, AID492950]. Type of assay: functional.

A further assay deals with Mu-type opioid receptor (Homo sapiens, UniProt P35372). The assay is described as follows: HTS Image-Based Screen for Agonists of the MOR Receptor. [Related pubchem assays (depositor defined):AID1777, AID1785, AID1786, AID2133]. Type of assay: functional.
Assay [10] concerns the target T5, Kappa-type opioid receptor (Homo sapiens, UniProt P41145). The format is functional.
Assay [11] addresses T6, Delta-type opioid receptor (Homo sapiens, UniProt P41143). The assay is described as follows: HTS Image-Based Screen for Antagonists of the DOR Receptor. [Related pubchem assays (depositor defined):AID1777, AID1785, AID1786, AID2133]. The format is functional.
For assay [12], the target named is T6, Delta-type opioid receptor. The assay is described as follows: HTS Image-Based Screen for Agonists of the DOR Receptor. [Related pubchem assays (depositor defined):AID1777, AID1786, AID2133]. Type of assay: functional.
The target in a further assay is Beta-galactosidase (Escherichia coli, UniProt Q8VNN2). The format is functional.
Assay [13] concerns the target T5, Kappa-type opioid receptor. The format is functional. The source holds these as a separate data set.
Assay [14] has as its target T7, Replicative DNA helicase DnaB (Mycobacterium tuberculosis, UniProt P9WMR3).
T7 sequence (P9WMR3 whole entry): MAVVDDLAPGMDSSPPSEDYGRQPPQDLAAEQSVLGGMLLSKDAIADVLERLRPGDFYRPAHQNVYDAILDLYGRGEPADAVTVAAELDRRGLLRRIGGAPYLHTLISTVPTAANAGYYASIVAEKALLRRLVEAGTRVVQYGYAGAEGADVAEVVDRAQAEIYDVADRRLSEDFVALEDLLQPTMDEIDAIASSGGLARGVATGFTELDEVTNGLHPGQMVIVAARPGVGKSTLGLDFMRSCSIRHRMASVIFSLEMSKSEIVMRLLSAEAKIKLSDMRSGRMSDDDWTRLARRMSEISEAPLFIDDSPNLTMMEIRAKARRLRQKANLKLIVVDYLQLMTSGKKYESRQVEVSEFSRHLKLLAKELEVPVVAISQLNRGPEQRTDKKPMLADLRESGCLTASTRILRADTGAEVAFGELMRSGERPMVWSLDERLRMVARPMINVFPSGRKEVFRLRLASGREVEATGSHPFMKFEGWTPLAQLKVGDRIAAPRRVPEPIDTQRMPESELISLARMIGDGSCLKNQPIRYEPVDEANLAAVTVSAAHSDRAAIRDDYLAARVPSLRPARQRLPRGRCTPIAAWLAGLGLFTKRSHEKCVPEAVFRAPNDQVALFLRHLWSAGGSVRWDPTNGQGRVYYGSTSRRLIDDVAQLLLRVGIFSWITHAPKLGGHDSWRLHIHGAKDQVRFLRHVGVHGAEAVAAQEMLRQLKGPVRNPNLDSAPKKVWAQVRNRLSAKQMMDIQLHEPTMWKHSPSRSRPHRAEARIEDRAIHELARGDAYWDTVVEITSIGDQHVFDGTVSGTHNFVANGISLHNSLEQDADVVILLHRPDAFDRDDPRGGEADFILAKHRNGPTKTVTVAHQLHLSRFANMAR
The assay can be described thus: DnaB intein splicing inhibitors, dose response, biochemical, cell-free fluorescence (AID 449749). Type of assay: functional.

Each structure is given as a SMILES string. Activity calls are given as the source filed them.

T5 sequence (P41145 whole entry): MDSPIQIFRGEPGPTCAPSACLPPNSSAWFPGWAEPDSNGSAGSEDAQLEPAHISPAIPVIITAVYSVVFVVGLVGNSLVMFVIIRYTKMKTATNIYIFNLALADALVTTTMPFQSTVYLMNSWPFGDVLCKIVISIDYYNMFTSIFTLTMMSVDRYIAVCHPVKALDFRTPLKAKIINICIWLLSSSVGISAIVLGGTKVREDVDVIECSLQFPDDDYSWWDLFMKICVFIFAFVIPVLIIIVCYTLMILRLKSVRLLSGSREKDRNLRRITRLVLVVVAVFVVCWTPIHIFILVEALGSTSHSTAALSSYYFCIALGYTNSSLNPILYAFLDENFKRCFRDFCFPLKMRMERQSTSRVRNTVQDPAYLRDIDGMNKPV
T2 sequence (Q9HC29 whole entry, the tested form may be a part): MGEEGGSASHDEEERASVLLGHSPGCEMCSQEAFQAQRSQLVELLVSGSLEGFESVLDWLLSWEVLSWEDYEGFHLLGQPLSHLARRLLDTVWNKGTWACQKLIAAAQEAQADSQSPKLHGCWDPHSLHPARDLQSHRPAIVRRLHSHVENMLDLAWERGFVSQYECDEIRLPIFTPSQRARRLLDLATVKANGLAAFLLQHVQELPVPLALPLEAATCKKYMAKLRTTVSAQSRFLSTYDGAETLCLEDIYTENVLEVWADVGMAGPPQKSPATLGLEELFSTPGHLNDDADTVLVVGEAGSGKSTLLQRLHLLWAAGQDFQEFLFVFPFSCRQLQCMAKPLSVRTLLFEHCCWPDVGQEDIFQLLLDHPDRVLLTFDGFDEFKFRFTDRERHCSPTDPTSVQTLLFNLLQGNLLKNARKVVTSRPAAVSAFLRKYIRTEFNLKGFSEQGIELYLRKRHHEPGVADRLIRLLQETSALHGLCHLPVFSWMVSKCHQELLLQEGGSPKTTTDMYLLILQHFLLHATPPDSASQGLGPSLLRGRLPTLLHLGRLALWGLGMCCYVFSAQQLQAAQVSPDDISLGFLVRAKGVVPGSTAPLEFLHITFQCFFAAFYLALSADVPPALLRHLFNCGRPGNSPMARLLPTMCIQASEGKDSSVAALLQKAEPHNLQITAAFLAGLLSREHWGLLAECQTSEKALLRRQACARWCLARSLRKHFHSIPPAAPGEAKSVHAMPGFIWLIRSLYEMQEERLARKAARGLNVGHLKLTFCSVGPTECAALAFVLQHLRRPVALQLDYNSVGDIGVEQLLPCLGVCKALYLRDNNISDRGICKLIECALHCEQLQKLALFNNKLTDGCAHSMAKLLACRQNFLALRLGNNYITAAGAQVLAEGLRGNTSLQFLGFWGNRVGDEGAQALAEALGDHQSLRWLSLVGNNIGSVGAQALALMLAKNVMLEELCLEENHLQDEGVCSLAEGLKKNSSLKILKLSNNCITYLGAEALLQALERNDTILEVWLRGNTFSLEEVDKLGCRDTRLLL
T6 sequence (P41143 whole entry): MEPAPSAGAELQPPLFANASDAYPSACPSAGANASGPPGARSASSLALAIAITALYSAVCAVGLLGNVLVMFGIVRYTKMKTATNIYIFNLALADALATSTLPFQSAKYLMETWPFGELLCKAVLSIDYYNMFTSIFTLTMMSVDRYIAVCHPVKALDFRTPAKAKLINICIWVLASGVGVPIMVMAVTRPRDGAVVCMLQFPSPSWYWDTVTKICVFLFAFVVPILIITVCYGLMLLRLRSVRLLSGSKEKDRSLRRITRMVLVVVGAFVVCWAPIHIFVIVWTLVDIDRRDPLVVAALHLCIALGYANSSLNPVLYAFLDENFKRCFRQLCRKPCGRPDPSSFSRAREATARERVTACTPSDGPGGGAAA
Tumor necrosis factor, sequence (P01375 whole entry): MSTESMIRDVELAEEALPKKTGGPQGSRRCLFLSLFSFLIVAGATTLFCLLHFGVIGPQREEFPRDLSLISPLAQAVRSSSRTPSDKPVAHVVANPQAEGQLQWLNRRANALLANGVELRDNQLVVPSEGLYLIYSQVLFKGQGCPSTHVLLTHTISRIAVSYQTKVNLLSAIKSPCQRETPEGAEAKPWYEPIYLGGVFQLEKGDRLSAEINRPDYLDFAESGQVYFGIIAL
Mu-type opioid receptor, sequence (P35372 whole entry): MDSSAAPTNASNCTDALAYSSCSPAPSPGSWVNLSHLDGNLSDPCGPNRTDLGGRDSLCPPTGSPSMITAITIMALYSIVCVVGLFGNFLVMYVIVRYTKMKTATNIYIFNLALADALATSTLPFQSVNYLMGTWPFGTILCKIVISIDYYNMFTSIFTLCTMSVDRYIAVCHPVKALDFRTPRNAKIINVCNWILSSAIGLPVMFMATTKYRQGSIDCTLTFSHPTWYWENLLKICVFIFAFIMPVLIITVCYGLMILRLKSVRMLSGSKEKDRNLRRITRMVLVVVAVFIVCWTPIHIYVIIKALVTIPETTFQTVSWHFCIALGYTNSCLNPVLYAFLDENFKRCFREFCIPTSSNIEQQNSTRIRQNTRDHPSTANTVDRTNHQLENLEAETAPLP
Beta-galactosidase, sequence (Q8VNN2 whole entry): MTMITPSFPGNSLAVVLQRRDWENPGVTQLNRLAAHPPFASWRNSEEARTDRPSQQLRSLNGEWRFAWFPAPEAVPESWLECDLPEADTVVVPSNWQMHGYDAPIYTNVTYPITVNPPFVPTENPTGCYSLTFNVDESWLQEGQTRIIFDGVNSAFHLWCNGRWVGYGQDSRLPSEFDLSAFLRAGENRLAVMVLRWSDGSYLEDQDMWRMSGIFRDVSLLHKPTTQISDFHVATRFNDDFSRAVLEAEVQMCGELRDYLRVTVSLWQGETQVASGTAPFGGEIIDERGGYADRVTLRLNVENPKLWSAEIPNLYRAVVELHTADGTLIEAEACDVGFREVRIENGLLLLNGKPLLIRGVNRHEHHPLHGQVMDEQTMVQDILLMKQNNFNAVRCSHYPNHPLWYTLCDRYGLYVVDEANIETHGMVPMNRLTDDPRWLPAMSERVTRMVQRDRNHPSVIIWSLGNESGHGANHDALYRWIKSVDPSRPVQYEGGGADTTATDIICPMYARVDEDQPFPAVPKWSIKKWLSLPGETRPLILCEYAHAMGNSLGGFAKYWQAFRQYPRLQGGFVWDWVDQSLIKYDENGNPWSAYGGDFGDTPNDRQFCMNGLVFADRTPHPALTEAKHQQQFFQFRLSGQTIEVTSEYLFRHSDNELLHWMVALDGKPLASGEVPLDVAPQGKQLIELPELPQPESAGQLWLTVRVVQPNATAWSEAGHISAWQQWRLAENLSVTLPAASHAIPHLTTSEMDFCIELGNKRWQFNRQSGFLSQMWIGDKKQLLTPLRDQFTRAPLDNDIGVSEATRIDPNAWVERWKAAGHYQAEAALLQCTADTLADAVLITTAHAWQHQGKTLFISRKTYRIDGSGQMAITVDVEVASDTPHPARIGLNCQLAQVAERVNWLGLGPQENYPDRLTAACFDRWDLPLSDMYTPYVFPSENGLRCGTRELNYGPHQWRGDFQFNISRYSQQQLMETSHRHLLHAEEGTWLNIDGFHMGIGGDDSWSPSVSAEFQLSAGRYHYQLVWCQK

As usually defined, the IC50 is the midpoint of a concentration-inhibition curve. On to `CCCn1c(SCCc2ccccc2)nc2c1c(=O)[nH]c(=O)n2C`, for which the IC50 was > 20 µM (inactive) on Tumor necrosis factor; > 20 µM (inactive) with HEK293 [1]; > 25 µM (inactive) on Interleukin-8 [2]; > 25 µM (inactive) on Interleukin-8 [3]; > 20 µM (inactive) in [4]; > 20 µM (inactive) with HEK293 [5]. Further, the IC50 in assay [6] is > 20 µM (inactive); in assay [7], > 20 µM (inactive); in assay [8], > 20 µM (inactive); in assay [9], > 25 µM (inactive).

By EC50 is commonly meant the concentration giving half of the maximal effect. One may read the AC50 as the concentration at which the activity in the assay is half-maximal. Take `O=[N+]([O-])c1ccc2nc(Cl)nc(-c3ccccc3)c2c1`: the EC50 at Protein RecA is > 380 µM (inactive); on Mu-type opioid receptor, > 32 µM (inactive); in [12], > 32 µM (inactive); on Beta-galactosidase, > 31.5 µM (inactive). The 50% inhibitory concentration (IC50) in assay [10] is 8.95 µM (active); in assay [11], > 32 µM (inactive); in assay [13], 27.9 µM. Further, the concentration at half-maximal activity (AC50) in assay [14] is 134 µM (active).

Source of the values: ChEMBL document CHEMBL1201862, “PubChem BioAssay data set” (2004).
